Experimental data from article PMC12490239, “Combining BET inhibition with SMAC mimetics restricts tumor growth and triggers immune surveillance in preclinical cancer models” (Cell Reports Medicine, 2025).

Key:
Assay in all cases: cells
Design in all cases: CellTiter-Glo 2.0 luminescence proliferation/viability assay, single agents, human tumour cell line panel
SNU-216 = conditions: SNU-216, 96 h; single agent; read-out: IC50 SMACm
Protocol: (§1) The effect of BETi, SMACm alone or in combination cell viability was determined using a 96-h CellTiter-Glo2.0 proliferation assay. Cells were seeded in assay plates and placed at 37°C with 5% CO2 for twenty-four hours before treatment. Compounds were added in triplicate in gradients of increasing concentrations, in case of SMACm ranging between 4.5 nM and 10 μM and in case of BETi between 1.4 nM and 3 μM. DMSO served as control. Cell viability was measured by luminescence analysis using luminescence read on Envision plate readers (PerkinElmer). An additional set of colorectal cancer cell lines was assayed with technical duplicates and experimental triplicates. Cell viability was measured by luminescence analysis using luminescence read on Tecan Plate reader. The effects of drug combinations were analyzed using the Bliss Independence Model.[34] Synergy score was calculated by the average of 3 highest and 3 lowest BLISS Gaps between predicted and measured POC (Percentage of Control) values. To investigate the synergistic interaction between BI 894999 (hereafter, BETi) and BI 891065 (hereafter, SMACm), we evaluated the in vitro anti-tumor effect of the single agents or the combination in a large panel of 151 cancer cell lines of different tissue origin: CRC, gastric cancer, non-small cell lung cancer (NSCLC), and pancreatic carcinoma (Figures 1C–1F). As a mono-agent, SMACm was able to inhibit cell proliferation only in a limited number of tested cell lines (4%, Table S2). Most of the cell lines responded to inhibition by BETi, with sensitivity ranging from 10 to 100 nM (Figure 1C). Bliss Gap analysis, performed to analyze the effect of the BETi+SMACm combination on tumor cell growth (Figures 1D–1F), unveiled potent synergistic activity across the cell models tested (Figure 1E), independent of tumor type (Figure 1F).  Figure 1 The combinatorial effect of BI 894999 and BI 891065 across a panel of human tumor cell lines (A) Selectivity and potency profiles of BI 891065. Top left, structure of BI 891065. Top right, IC50 values for BI 891065 inhibition of cIAP1, cIAP2, and XIAP. Bottom, physicochemical properties of […]. (B) WES (Simple Western System) analysis of cIAP1, cIAP2, and XIAP levels upon treatment of HT-29 cells with indicated concentrations of BI 891065 for 6 h (C) IC50 values determined in cell proliferation assays (n = 151) individually for BETi BI 894999 and SMACm BI 891065. Each point represents a cell line tested. (D) Example of proliferation assay for synergy analysis in LoVo cell line; shown is combination plate map matrix and the cell growth inhibition (CGI) at the indicated concentrations; CGI values < 100%: tumor cell growth, CGI 100%: tumor cell stasis, and CGI > 100%: tumor cell killing. (E) Synergy scores across the tested panel of cell lines obtained using Bliss synergy analysis. (F) Violin plots showing the synergy scores for BETi and SMACm combination across indications. N is the number of cell lines tested in each indication group.

SW620 = conditions: Homo sapiens, SW-620, 96 h; single agent; read-out: IC50 SMACm
Protocol: as §1

SNU1181 = conditions: 96 h; single agent; read-out: IC50 SMACm
Protocol: as §1

CL14 = conditions: 96 h; single agent; read-out: IC50 SMACm
Protocol: as §1

LU-99 = conditions: Homo sapiens, Lu-99, 96 h; single agent; read-out: IC50 SMACm
Protocol: as §1

NCI-H2126 = conditions: Homo sapiens, NCI-H2126, 96 h; single agent; read-out: IC50 SMACm
Protocol: as §1

T84 = conditions: Homo sapiens, T84, 96 h; single agent; read-out: IC50 SMACm
Protocol: as §1

NCI-SNU-1 = conditions: 96 h; single agent; read-out: IC50 SMACm
Protocol: as §1

SNUC2B = conditions: Homo sapiens, SNU-C2B, 96 h; single agent; read-out: IC50 SMACm
Protocol: as §1

HRA16 = conditions: 96 h; single agent; read-out: IC50 SMACm
Protocol: as §1

RERF-GC-1B = conditions: 96 h; single agent; read-out: IC50 SMACm
Protocol: as §1

COLO678 = conditions: Homo sapiens, COLO-678, 96 h; single agent; read-out: IC50 SMACm
Protocol: as §1

KP-2 = conditions: 96 h; single agent; read-out: IC50 SMACm
Protocol: as §1

HCC-15 = conditions: HCC15, 96 h; single agent; read-out: IC50 SMACm
Protocol: as §1

COLO94H = conditions: 96 h; single agent; read-out: IC50 SMACm
Protocol: as §1

HCA7 = conditions: HCA-7, 96 h; single agent; read-out: IC50 SMACm
Protocol: as §1

- IC50 (SNU-216): 4.32 µM
- IC50 (SW620): 4.46 µM
- IC50 (SNU1181): 5.08 µM
- IC50 (NCI-H2126): 6.14 µM
- IC50 (NCI-SNU-1): 6.16 µM
- IC50 (SNUC2B): 0.137 µM
- IC50 (COLO678): 2.59 µM
- IC50 (HCC-15): 4.6 µM
- IC50 (COLO94H): 4.69 µM
Compound: CN[C@@H](C)C(=O)Nc1ccc(-c2c(-c3cccnc3OC)nc3cc(C)ccn23)c(C#Cc2ccc3c(C)nccc3c2)n1 [SMACm, BI 891065]
- IC50 (CL14): 1.91 µM
- IC50 (LU-99): 7.37 µM
- IC50 (T84): 4.44 µM
- IC50 (HRA16): 3.99 µM
- IC50 (RERF-GC-1B): 4.29 µM
- IC50 (KP-2): 4.62 µM
- IC50 (HCA7): 2.83 µM
